From US11401246B2, “Triazole glycolate oxidase inhibitors” (CANTERO THERAPEUTICS, INC., priority 2018, dated 2022)
Where two headings read alike, the source gives them in different places.

Target: T1, human glycolate oxidase (hGO) (Homo sapiens, UniProt Q9UJM8)
T1 construct: His-tag (6 histidines, pET-15b) (N); made in house; host or cells: E. coli BL21 (DE3)
T1 sequence (Q9UJM8 1-370): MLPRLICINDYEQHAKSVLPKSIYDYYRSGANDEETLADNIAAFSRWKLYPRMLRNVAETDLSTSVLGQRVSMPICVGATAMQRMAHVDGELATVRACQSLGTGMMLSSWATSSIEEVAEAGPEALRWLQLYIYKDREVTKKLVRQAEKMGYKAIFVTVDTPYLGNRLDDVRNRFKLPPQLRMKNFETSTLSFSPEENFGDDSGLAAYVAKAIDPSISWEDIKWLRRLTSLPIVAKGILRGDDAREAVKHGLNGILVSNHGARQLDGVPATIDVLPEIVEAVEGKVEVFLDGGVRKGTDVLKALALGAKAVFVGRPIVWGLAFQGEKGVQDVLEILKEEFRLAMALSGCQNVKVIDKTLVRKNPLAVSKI
Experiment: In vitro inhibition of human glycolate oxidase (enzymatic assay, HRP-coupled Trinder reaction);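 as to % Inhibition: values are IC50 potency bins despite the % Inhibition label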
Assay type: biochemical
From the text: The catalytic reactions used for assaying glycolate oxidase activity in the presence of compounds according to the present disclosure are outlined in FIG. 2. Glycolate oxidase (GO)-catalyzed conversion of glycolate to glyoxylate (top reaction), with the concomitant reduction of the cofactor flavin mononucleotide (FMN), uses molecular oxygen (O2) for recovering its oxidative state, releasing hydrogen peroxide (H2O2). The Trinder reaction (bottom reaction), in which horseradish peroxidase (HRP) uses hydrogen peroxide, 4-aminoantipyrine and a phenol derivative (sulphonated DCIP) to generate a quinoneimine dye that is spectrophotometrically measured.
Human glycolate oxidase (hGO) expression. BL21 (DE3) E. coli transformed with recombinant pET-15b expression vector with the N-terminal His-tag human Hao1 cDNA was grown in LB medium in the presence of 0.1 mg/ml ampicillin. For purification of recombinant human glycolate oxidase (hGO) expressed in BL21 E. coli, bacteria pellets were thawed and re-suspended in 2 ml lysis buffer (50 mM NaH2PO4, 300 mM NaCl, 10 mM imidazole, 50 μM FMN, pH 7.5), and then treated for 30 minutes with 1 mM PMSF for protease inhibition, 0.1% Triton X-100 and 0.2 mg/ml lysozyme to break cellular membranes. After sonication, cells were centrifuged and the supernatant containing the total cellular extract (pre-column fraction) was loaded into a Ni-NTA agarose column and incubated for 30 minutes at 4° C. to allow binding of the 6 histidine tail of recombinant GO protein to the nickel ions. The column was washed with two bed volumes of lysis buffer with 20 mM imidazole to eliminate unbound proteins (wash fraction). GO was eluted using the same buffer with 300 mM imidazole. Fraction containing purified GO was dialyzed against 300 ml of dialysis buffer (50 mM NaH2PO4, 300 mM NaCl, pH 7.5) at 4° C. in agitation overnight, and then kept at 4° C. in darkness. Protein were quantified by the bicinchoninic acid (BCA) assay.
Enzymatic assays. Enzymatic activity of hGO was determined in the presence of glycolate as substrate (40 mM glycolic acid) and phosphate buffer (50 mM KPO4, 0.1 mM EDTA, pH 7). The production of glyoxylate was indirectly measured by the quantification of hydrogen peroxide formed during the first oxidation reaction. […] Enzymatic activity was calculated at 1 minute after initiation of the Trinder reaction.

[1] = recombinant hGO, 40 mM glycolic acid, pH 7, read at 515 nm, 1 minute after initiation of Trinder reaction, read-out: % Inhibition

IC50	IC50 [1]	Compound
100 to 200 nM	–	O=C(O)c1nn[nH]c1Oc1ccc(-c2ccccc2)cc1 [Example 42, 5-([1,1′-biphenyl]-4-yloxy)-1H-1,2,3-triazole-4-carboxylic Acid]
–	100 to 200 nM	Cc1ccc(Oc2[nH]nnc2C(=O)O)cc1 [Example 43, 5-(p-tolyloxy)-1H-1,2,3-triazole-4-carboxylic Acid]
–	100 to 200 nM	O=C(O)c1nn[nH]c1Oc1ccc(-c2cccc(OC(F)F)c2)nc1 [Example 44, 5-((6-(3-(difluoromethoxy)phenyl)pyridin-3-yl)oxy)-1H-1,2,3-triazole-4-carboxylic Acid]
> 200 nM	–	O=C(O)c1nn[nH]c1Oc1ccccc1 [Example 45, 5-phenoxy-1H-1,2,3-triazole-4-carboxylic Acid]
< 100 nM	–	COc1ccc(Oc2[nH]nnc2C(=O)O)cc1 [Example 46, 5-(4-methoxyphenoxy)-1H-1,2,3-triazole-4-carboxylic Acid]
–	100 to 200 nM	O=C(O)c1nn[nH]c1Sc1ccc(F)cc1 [Example 47, 5-((4-fluorophenyl)thio)-1H-1,2,3-triazole-4-carboxylic Acid]
–	< 100 nM	O=C(O)c1nn[nH]c1Oc1ccc(Br)c(Cl)c1 [Example 48, 5-(4-bromo-3-chlorophenoxy)-1H-1,2,3-triazole-4-carboxylic Acid]
–	< 100 nM	O=C(O)c1nn[nH]c1Oc1ccc(Cl)nc1 [Example 49, 5-((6-chloropyridin-3-yl)oxy)-1H-1,2,3-triazole-4-carboxylic Acid]
–	< 100 nM	O=C(O)c1nn[nH]c1Oc1ccc(Br)cc1F [Example 51, 5-(4-bromo-2-fluorophenoxy)-1H-1,2,3-triazole-4-carboxylic Acid]
100 to 200 nM	–	O=C(O)c1nn[nH]c1Sc1ccc(Br)cc1 [Example 52, 5-((4-bromophenyl)thio)-1H-1,2,3-triazole-4-carboxylic Acid]
–	< 100 nM	N#Cc1ccc(Oc2[nH]nnc2C(=O)O)cc1 [Example 53, 5-(4-cyanophenoxy)-1H-1,2,3-triazole-4-carboxylic Acid]
–	> 200 nM	Cc1ccc(Oc2[nH]nnc2C(=O)O)cn1 [Example 54, 5-((6-methylpyridin-3-yl)oxy)-1H-1,2,3-triazole-4-carboxylic Acid]
–	< 100 nM	N#Cc1ccc(-c2ccc(Oc3[nH]nnc3C(=O)O)cn2)cc1 [Example 55, 5-((6-(4-cyanophenyl)pyridin-3-yl)oxy)-1H-1,2,3-triazole-4-carboxylic Acid]
–	> 200 nM	NC(=O)c1ccc(Oc2[nH]nnc2C(=O)O)cc1 [Example 56, 5-(4-carbamoylphenoxy)-1H-1,2,3-triazole-4-carboxylic Acid]
–	> 200 nM	O=C(O)c1nn[nH]c1Oc1cccnc1F [Example 57, 5-((2-fluoropyridin-3-yl)oxy)-1H-1,2,3-triazole-4-carboxylic Acid]
–	< 100 nM	CN(C)c1cccc(Oc2[nH]nnc2C(=O)O)c1 [Example 58, 5-(3-(dimethylamino)phenoxy)-1H-1,2,3-triazole-4-carboxylic Acid]
–	< 100 nM	Cc1ncc(-c2cccc(Oc3[nH]nnc3C(=O)O)c2)cn1 [Example 59, 5-(3-(2-methylpyrimidin-5-yl)phenoxy)-1H-1,2,3-triazole-4-carboxylic Acid]
–	< 100 nM	O=C(O)c1nn[nH]c1Oc1ccc(C(F)(F)F)cc1 [Example 60, 5-(4-(trifluoromethyl)phenoxy)-1H-1,2,3-triazole-4-carboxylic Acid]
–	< 100 nM	O=C(O)c1nn[nH]c1Oc1cccc(-c2cccnc2F)c1 [Example 61, 5-(3-(2-fluoropyridin-3-yl)phenoxy)-1H-1,2,3-triazole-4-carboxylic Acid]
–	100 to 200 nM	O=C(O)c1nn[nH]c1Sc1ccc(-c2cccnc2F)cc1 [Example 62, 5-((4-(2-fluoropyridin-3-yl)phenyl)thio)-1H-1,2,3-triazole-4-carboxylic Acid]

IC50	IC50 [1]	Compound
–	100 to 200 nM	NC(=O)c1ccc(-c2cccc(Oc3[nH]nnc3C(=O)O)c2)cc1 [Example 63, 5-((4′-carbamoyl-[1,1′-biphenyl]-3-yl)oxy)-1H-1,2,3-triazole-4-carboxylic Acid]
–	100 to 200 nM	N#Cc1ccc(-c2cccc(Oc3[nH]nnc3C(=O)O)c2)cc1 [Example 64, 5-((4′-cyano-[1,1′-biphenyl]-3-yl)oxy)-1H-1,2,3-triazole-4-carboxylic Acid]
–	> 200 nM	CN1CCN(c2ccc(Oc3[nH]nnc3C(=O)O)cc2)CC1 [Example 65, 5-(4-(4-methylpiperazin-1-yl)phenoxy)-1H-1,2,3-triazole-4-carboxylic Acid]
–	> 200 nM	O=C(O)c1nn[nH]c1Oc1cccnc1Br [Example 66, 5-((2-bromopyridin-3-yl)oxy)-1H-1,2,3-triazole-4-carboxylic Acid]
–	> 200 nM	Cc1ccc(Oc2[nH]nnc2C(=O)O)c(C)n1 [Example 67, 5-((2,6-dimethylpyridin-3-yl)oxy)-1H-1,2,3-triazole-4-carboxylic Acid]
–	> 200 nM	CC(C)(C)c1ccc(Oc2[nH]nnc2C(=O)O)cc1 [Example 68, 5-(4-(tert-butyl)phenoxy)-1H-1,2,3-triazole-4-carboxylic Acid]
100 to 200 nM	–	O=C(O)c1nn[nH]c1Oc1ccc(C2CCCC2)cc1 [Example 69, 5-(4-cyclopentylphenoxy)-1H-1,2,3-triazole-4-carboxylic Acid]
–	> 200 nM	COc1ccc(Oc2[nH]nnc2C(=O)O)cn1 [Example 70, 5-((6-methoxypyridin-3-yl)oxy)-1H-1,2,3-triazole-4-carboxylic Acid]
< 100 nM	–	Cc1cc(Oc2[nH]nnc2C(=O)O)ccc1Br [Example 71, 5-(4-bromo-3-methylphenoxy)-1H-1,2,3-triazole-4-carboxylic Acid]
–	< 100 nM	Cc1cc(Oc2[nH]nnc2C(=O)O)ccc1-c1cccnc1F [Example 72, 5-(4-(2-fluoropyridin-3-yl)-3-methylphenoxy)-1H-1,2,3-triazole-4-carboxylic Acid]
–	< 100 nM	Cc1nc(F)ccc1-c1ccc(Oc2[nH]nnc2C(=O)O)cc1 [Example 73, 5-(4-(6-fluoro-2-methylpyridin-3-yl)phenoxy)-1H-1,2,3-triazole-4-carboxylic Acid]
–	< 100 nM	Cc1cc(F)nc(-c2ccc(Oc3[nH]nnc3C(=O)O)cc2)c1 [Example 74, 5-(4-(6-fluoro-4-methylpyridin-2-yl)phenoxy)-1H-1,2,3-triazole-4-carboxylic Acid]
–	< 100 nM	Cc1c(-c2ccc(Oc3[nH]nnc3C(=O)O)cc2)ccnc1F [Example 75, 5-(4-(2-fluoro-3-methylpyridin-4-yl)phenoxy)-1H-1,2,3-triazole-4-carboxylic Acid]
–	< 100 nM	O=C(O)c1nn[nH]c1Oc1ccc(C23CC(C2)C3)cc1 [Example 76, 5-(4-(3-bicyclo[1.1.1]pentan-1-yl)phenoxy)-1H-1,2,3-triazole-4-carboxylic Acid]
–	100 to 200 nM	O=C1CCC(c2ccc(Oc3[nH]nnc3C(=O)O)cc2)CC1 [Example 77, 5-(4-(4-oxocyclohexyl)phenoxy)-1H-1,2,3-triazole-4-carboxylic Acid]
–	< 100 nM	Cc1ccc(-c2ccc(Oc3[nH]nnc3C(=O)O)cc2C)c(F)n1 [Example 78, 5-(4-(2-fluoro-6-methylpyridin-3-yl)-3-methylphenoxy)-1H-1,2,3-triazole-4-carboxylic Acid]
–	< 100 nM	Cc1ccc(-c2ccc(Oc3[nH]nnc3C(=O)O)cc2)c(F)n1 [Example 79, 5-(4-(2-fluoro-6-methylpyridin-3-yl)phenoxy)-1H-1,2,3-triazole-4-carboxylic Acid]
–	< 100 nM	Cc1cncc(-c2ccc(Oc3[nH]nnc3C(=O)O)cc2)c1 [Example 80, 5-(4-(5-methylpyridin-3-yl)phenoxy)-1H-1,2,3-triazole-4-carboxylic Acid]
–	< 100 nM	Cc1cc(-c2ccc(Oc3[nH]nnc3C(=O)O)cc2)ccn1 [Example 81, 5-(4-(2-methylpyridin-4-yl)phenoxy)-1H-1,2,3-triazole-4-carboxylic Acid]
